Test results: ChEMBL document CHEMBL1759984, “Synthesis and structure-activity relationships of phenylpropanoid amides of serotonin on tyrosinase inhibition” (Bioorg Med Chem Lett, 2011)

Experiments:
Tyrosinase = biological target: T1, Tyrosinase (Agaricus bisporus, UniProt O42713)
T1 sequence (O42713 whole entry): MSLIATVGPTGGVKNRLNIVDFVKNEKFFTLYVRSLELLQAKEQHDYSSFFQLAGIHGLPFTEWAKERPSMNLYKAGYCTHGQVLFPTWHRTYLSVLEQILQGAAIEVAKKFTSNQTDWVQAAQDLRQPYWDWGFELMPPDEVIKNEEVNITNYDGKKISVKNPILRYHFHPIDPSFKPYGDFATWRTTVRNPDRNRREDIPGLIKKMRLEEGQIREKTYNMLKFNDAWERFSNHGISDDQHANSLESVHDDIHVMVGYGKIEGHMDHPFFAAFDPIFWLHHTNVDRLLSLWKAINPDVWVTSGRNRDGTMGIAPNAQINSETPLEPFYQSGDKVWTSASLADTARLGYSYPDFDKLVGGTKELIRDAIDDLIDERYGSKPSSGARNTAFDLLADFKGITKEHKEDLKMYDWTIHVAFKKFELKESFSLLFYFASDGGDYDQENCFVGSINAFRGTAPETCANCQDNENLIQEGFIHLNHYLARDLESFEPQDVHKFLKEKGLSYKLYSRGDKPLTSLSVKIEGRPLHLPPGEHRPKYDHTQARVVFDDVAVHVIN
Description: Inhibition of mushroom tyrosinase after 25 mins by spectrophotometry

[1] = tested on: Radical scavenging activity
Description: Antioxidant activity assessed as DPPH radical scavenging activity by spectrophotometry

SMILES | IC50 (Tyrosinase) [µM] | EC50 [1] [µM]
COc1cc(/C=C/C(=O)O)cc(OC)c1O [SINAPINATE] | > 351 | > 250
COc1ccc(/C=C/C(=O)NCCc2c[nH]c3ccc(O)cc23)cc1OC [N-3,4-DIMETHOXY CINNAMOYL SEROTONIN] | 322 | 28.1
O=C(/C=C/c1ccc(O)c(O)c1)NCCc1c[nH]c2ccc(O)cc12 [N-CAFFEOYLSEROTONIN] | 278 | 19.4
COc1cc(/C=C/C(=O)O)ccc1O [FERULATE] | > 350 | > 250
COc1ccc(/C=C/C(=O)O)cc1 [4-METHOXYCINNAMIC ACID] | > 350 | > 250
COc1cc(/C=C/C(=O)NCCc2c[nH]c3ccc(O)cc23)cc(OC)c1O [N-SINAPOYL SEROTONIN] | > 350 | 30.7
O=C(O)CCC(=O)NCCc1c[nH]c2ccc(O)cc12 [BUFOBUTANOIC ACID] | > 350 | 38.3
NCCc1c[nH]c2ccc(O)cc12 [SEROTONIN] | > 350 | > 250

Now those with a lower IC50 (Tyrosinase), led by results:

IC50 (Tyrosinase) [µM] | EC50 [1] [µM] | SMILES
121 | > 250 | O=C(O)/C=C/c1ccc(O)cc1 [COUMARIC ACID]
40.4 | 22.2 | O=C(/C=C/c1ccccc1)NCCc1c[nH]c2ccc(O)cc12 [N-CINNAMOYL SEROTONIN]
23.8 | 34.2 | COc1ccc(/C=C/C(=O)NCCc2c[nH]c3ccc(O)cc23)cc1 [N-P-METHOXY CINNAMOYL SEROTONIN]
8.8 | 24.7 | O=C(/C=C/c1ccc(O)cc1)NCCc1c[nH]c2ccc(O)cc12 [N-P-COUMAROYL SEROTONIN]
8 | 22.8 | COc1cc(/C=C/C(=O)NCCc2c[nH]c3ccc(O)cc23)ccc1O [N-FERULOYL SEROTONIN]
5.4 | 35.1 | COc1ccc(/C=C/C(=O)NCCc2c[nH]c3ccc(O)cc23)cc1O [N-ISOFERULOYL SEROTONIN]
